# Measured values: patent US10165776B2, “Substituted pyrazolylpyrazole derivative and use of same as herbicide” (KYOYU AGRI CO., LTD., priority 2015, dated 2019)
# System: Echinochloa crus-galli
# Assay: Paddy herbicidal activity test
# Assay type: in vivo
# Conditions: 1 g a.i./10 a; irrigated pot, treated at 3.5 leaf stage of Echinochloa crus-galli; 30 days at 30° C.
# Method: (§1) Rice paddy soil was filled into a 1/10000 are pot followed by the addition of suitable amounts of water and chemical fertilizer, kneading, seeding with Echinochloa crus-galli, Monochoria vaginalis and Scirpus juncoides and maintaining in an irrigated state at a water depth of 3 cm. Wettable powders of Target Compound (I) shown in Table 1 prepared in compliance with the preparation examples were diluted with a suitable amount of water, rice plants in the 2.0 leaf stage were transplanted during 3.5 leaf stage of Echinochloa crus-galli, and treated by dropping in chemical in the prescribed amount per 10 are using a pipette. After treating for 30 days in a glass greenhouse at an average atmospheric temperature of 30° C., the herbicidal efficacy thereof was investigated. Evaluation of herbicidal efficacy was carried out by comparing growth inhibition rate (%) with an untreated group, while evaluation of phytotoxicity was carried out by comparing growth inhibition rate (%) with the state of a complete eradication group, and were evaluated at 11 levels indicated below.
row,SMILES,"herbicidal efficacy, Echinochloa crus-galli"
1,N#Cc1cnn(-c2nn3c(c2Cl)CCCC3)c1NC(=O)Cc1ccc(F)cc1 [Compound 15],10 (10: 100%)
2,O=C(Cc1ccccc1)Nc1c([N+](=O)[O-])cnn1-c1nn2c(c1Cl)CCCC2 [Compound 5],10 (10: 100%)

# Same assay, conditions: 5 g a.i./10 a; irrigated pot, treated at 3.5 leaf stage of Echinochloa crus-galli; 30 days at 30° C.
row,SMILES,"herbicidal efficacy, Echinochloa crus-galli"
1,N#Cc1cnn(-c2nn3c(c2Cl)CCCC3)c1NC(=O)Cc1ccc(F)cc1 [Compound 15],10 (10: 100%)
2,O=C(Cc1ccccc1)Nc1c([N+](=O)[O-])cnn1-c1nn2c(c1Cl)CCCC2 [Compound 5],10 (10: 100%)

# System: Monochoria vaginalis
# Assay: Paddy herbicidal activity test
# Assay type: in vivo
# Conditions: 1 g a.i./10 a; irrigated pot, treated at 3.5 leaf stage of Echinochloa crus-galli; 30 days at 30° C.
# Method: as §1
row,SMILES,"herbicidal efficacy, Monochoria vaginalis"
1,N#Cc1cnn(-c2nn3c(c2Cl)CCCC3)c1NC(=O)Cc1ccc(F)cc1 [Compound 15],10 (10: 100%)
2,O=C(Cc1ccccc1)Nc1c([N+](=O)[O-])cnn1-c1nn2c(c1Cl)CCCC2 [Compound 5],10 (10: 100%)

# Same assay, conditions: 5 g a.i./10 a; irrigated pot, treated at 3.5 leaf stage of Echinochloa crus-galli; 30 days at 30° C.
row,SMILES,"herbicidal efficacy, Monochoria vaginalis"
1,N#Cc1cnn(-c2nn3c(c2Cl)CCCC3)c1NC(=O)Cc1ccc(F)cc1 [Compound 15],10 (10: 100%)
2,O=C(Cc1ccccc1)Nc1c([N+](=O)[O-])cnn1-c1nn2c(c1Cl)CCCC2 [Compound 5],10 (10: 100%)

# System: Scirpus juncoides
# Assay: Paddy herbicidal activity test
# Assay type: in vivo
# Conditions: 1 g a.i./10 a; irrigated pot, treated at 3.5 leaf stage of Echinochloa crus-galli; 30 days at 30° C.
# Method: as §1
row,SMILES,"herbicidal efficacy, Scirpus juncoides"
1,N#Cc1cnn(-c2nn3c(c2Cl)CCCC3)c1NC(=O)Cc1ccc(F)cc1 [Compound 15],9 (9: 90% to less than 100%)
2,O=C(Cc1ccccc1)Nc1c([N+](=O)[O-])cnn1-c1nn2c(c1Cl)CCCC2 [Compound 5],9 (9: 90% to less than 100%)

# Same assay, conditions: 5 g a.i./10 a; irrigated pot, treated at 3.5 leaf stage of Echinochloa crus-galli; 30 days at 30° C.
row,SMILES,"herbicidal efficacy, Scirpus juncoides"
1,N#Cc1cnn(-c2nn3c(c2Cl)CCCC3)c1NC(=O)Cc1ccc(F)cc1 [Compound 15],10 (10: 100%)
2,O=C(Cc1ccccc1)Nc1c([N+](=O)[O-])cnn1-c1nn2c(c1Cl)CCCC2 [Compound 5],10 (10: 100%)

# System: Oryza sativa
# Assay: Paddy herbicidal activity test, phytotoxicity to transplanted rice
# Assay type: in vivo
# Conditions: 1 g a.i./10 a; rice transplanted at 2.0 leaf stage; 30 days at 30° C.
# Method: as §1
row,SMILES,"phytotoxicity, Oryza sativa"
1,N#Cc1cnn(-c2nn3c(c2Cl)CCCC3)c1NC(=O)Cc1ccc(F)cc1 [Compound 15],1 (1: 10% to less than 20%)
2,O=C(Cc1ccccc1)Nc1c([N+](=O)[O-])cnn1-c1nn2c(c1Cl)CCCC2 [Compound 5],1 (1: 10% to less than 20%)

# Same assay, conditions: 5 g a.i./10 a; rice transplanted at 2.0 leaf stage; 30 days at 30° C.
row,SMILES,"phytotoxicity, Oryza sativa"
1,N#Cc1cnn(-c2nn3c(c2Cl)CCCC3)c1NC(=O)Cc1ccc(F)cc1 [Compound 15],1 (1: 10% to less than 20%)
2,O=C(Cc1ccccc1)Nc1c([N+](=O)[O-])cnn1-c1nn2c(c1Cl)CCCC2 [Compound 5],1 (1: 10% to less than 20%)

# System: Amaranthus retroflexus
# Assay: Farming soil treatment test
# Assay type: in vivo
# Conditions: 5 g a.i./10 a; soil surface spray prior to weed growth; 30 days at 30° C.
# Method: (§2) Field soil was filled into a 1/6000 are pot followed by seeding with Digitaria ciliaris, Chenopodium album and Amaranthus retroflexus and covering with soil. Wettable powders of compounds of formula (I) shown in Table 1 prepared in compliance with the preparation examples were diluted with water to the prescribed amount of chemical and uniformly sprayed onto each soil surface layer using 100 liters of sprayed water per 10 are prior to weed growth following seeding. After treating for 30 days in a glass greenhouse at an average atmospheric temperature of 30° C., the herbicidal efficacy thereof was investigated. Evaluation of herbicidal efficacy was carried out in the same manner as the above-mentioned Test Example 1.
row,SMILES,"herbicidal efficacy, Amaranthus retroflexus"
1,N#Cc1cnn(-c2nn3c(c2Cl)CCCC3)c1NC(=O)Cc1ccc(F)cc1 [Compound 15],10 (10: 100%)
2,O=C(Cc1ccccc1)Nc1c([N+](=O)[O-])cnn1-c1nn2c(c1Cl)CCCC2 [Compound 5],9 (9: 90% to less than 100%)

# Same assay, conditions: 10 g a.i./10 a; soil surface spray prior to weed growth; 30 days at 30° C.
row,SMILES,"herbicidal efficacy, Amaranthus retroflexus"
1,N#Cc1cnn(-c2nn3c(c2Cl)CCCC3)c1NC(=O)Cc1ccc(F)cc1 [Compound 15],10 (10: 100%)
2,O=C(Cc1ccccc1)Nc1c([N+](=O)[O-])cnn1-c1nn2c(c1Cl)CCCC2 [Compound 5],9 (9: 90% to less than 100%)

# System: Chenopodium album
# Assay: Farming soil treatment test
# Assay type: in vivo
# Conditions: 5 g a.i./10 a; soil surface spray prior to weed growth; 30 days at 30° C.
# Method: as §2
row,SMILES,"herbicidal efficacy, Chenopodium album"
1,N#Cc1cnn(-c2nn3c(c2Cl)CCCC3)c1NC(=O)Cc1ccc(F)cc1 [Compound 15],10 (10: 100%)
2,O=C(Cc1ccccc1)Nc1c([N+](=O)[O-])cnn1-c1nn2c(c1Cl)CCCC2 [Compound 5],9 (9: 90% to less than 100%)

# Same assay, conditions: 10 g a.i./10 a; soil surface spray prior to weed growth; 30 days at 30° C.
row,SMILES,"herbicidal efficacy, Chenopodium album"
1,N#Cc1cnn(-c2nn3c(c2Cl)CCCC3)c1NC(=O)Cc1ccc(F)cc1 [Compound 15],10 (10: 100%)
2,O=C(Cc1ccccc1)Nc1c([N+](=O)[O-])cnn1-c1nn2c(c1Cl)CCCC2 [Compound 5],10 (10: 100%)

# System: Digitaria ciliaris
# Assay: Farming soil treatment test
# Assay type: in vivo
# Conditions: 5 g a.i./10 a; soil surface spray prior to weed growth; 30 days at 30° C.
# Method: as §2
row,SMILES,"herbicidal efficacy, Digitaria ciliaris"
1,N#Cc1cnn(-c2nn3c(c2Cl)CCCC3)c1NC(=O)Cc1ccc(F)cc1 [Compound 15],9 (9: 90% to less than 100%)
2,O=C(Cc1ccccc1)Nc1c([N+](=O)[O-])cnn1-c1nn2c(c1Cl)CCCC2 [Compound 5],9 (9: 90% to less than 100%)

# Same assay, conditions: 10 g a.i./10 a; soil surface spray prior to weed growth; 30 days at 30° C.
row,SMILES,"herbicidal efficacy, Digitaria ciliaris"
1,N#Cc1cnn(-c2nn3c(c2Cl)CCCC3)c1NC(=O)Cc1ccc(F)cc1 [Compound 15],10 (10: 100%)
2,O=C(Cc1ccccc1)Nc1c([N+](=O)[O-])cnn1-c1nn2c(c1Cl)CCCC2 [Compound 5],9 (9: 90% to less than 100%)

# System: Amaranthus retroflexus
# Assay: Weed foliar treatment test (Test 3, 1.0 to 2.0 leaf stage)
# Assay type: in vivo
# Conditions: 5 g a.i./10 a; foliar spray at 1.0 to 2.0 leaf stage of Digitaria ciliaris; 3 weeks at 25° C.
# Method: (§3) Soil was filled into a 1/6000 are pot followed by seeding with Digitaria ciliaris, Chenopodium album and Amaranthus retroflexus, covering with soil, and cultivating in a glass greenhouse at an average atmospheric temperature of 25° C. Wettable powders of Target Compound (I) shown in Table 1 prepared in compliance with the preparation examples were diluted with water to the prescribed amount of chemical and uniformly sprayed onto the weeds using 150 liters of sprayed water per 10 are when Digitaria ciliaris had grown to the 1.0 to 2.0 leaf stage. After treating for 3 weeks in a glass greenhouse at an average atmospheric temperature of 25° C., the herbicidal efficacy thereof was investigated. Evaluation of herbicidal efficacy was carried out in the same manner as the above-mentioned Test Example 1.
row,SMILES,"herbicidal efficacy, Amaranthus retroflexus"
1,N#Cc1cnn(-c2nn3c(c2Cl)CCCC3)c1NC(=O)Cc1ccc(F)cc1 [Compound 15],10 (10: 100%)
2,O=C(Cc1ccccc1)Nc1c([N+](=O)[O-])cnn1-c1nn2c(c1Cl)CCCC2 [Compound 5],10 (10: 100%)

# Same assay, conditions: 10 g a.i./10 a; foliar spray at 1.0 to 2.0 leaf stage of Digitaria ciliaris; 3 weeks at 25° C.
row,SMILES,"herbicidal efficacy, Amaranthus retroflexus"
1,N#Cc1cnn(-c2nn3c(c2Cl)CCCC3)c1NC(=O)Cc1ccc(F)cc1 [Compound 15],10 (10: 100%)
2,O=C(Cc1ccccc1)Nc1c([N+](=O)[O-])cnn1-c1nn2c(c1Cl)CCCC2 [Compound 5],10 (10: 100%)

# System: Chenopodium album
# Assay: as above
# Assay type: in vivo
# Conditions: 5 g a.i./10 a; foliar spray at 1.0 to 2.0 leaf stage of Digitaria ciliaris; 3 weeks at 25° C.
# Method: as §3
row,SMILES,"herbicidal efficacy, Chenopodium album"
1,N#Cc1cnn(-c2nn3c(c2Cl)CCCC3)c1NC(=O)Cc1ccc(F)cc1 [Compound 15],10 (10: 100%)
2,O=C(Cc1ccccc1)Nc1c([N+](=O)[O-])cnn1-c1nn2c(c1Cl)CCCC2 [Compound 5],10 (10: 100%)

# Same assay, conditions: 10 g a.i./10 a; foliar spray at 1.0 to 2.0 leaf stage of Digitaria ciliaris; 3 weeks at 25° C.
row,SMILES,"herbicidal efficacy, Chenopodium album"
1,N#Cc1cnn(-c2nn3c(c2Cl)CCCC3)c1NC(=O)Cc1ccc(F)cc1 [Compound 15],10 (10: 100%)
2,O=C(Cc1ccccc1)Nc1c([N+](=O)[O-])cnn1-c1nn2c(c1Cl)CCCC2 [Compound 5],10 (10: 100%)

# System: Digitaria ciliaris
# Assay: as above
# Assay type: in vivo
# Conditions: 5 g a.i./10 a; foliar spray at 1.0 to 2.0 leaf stage of Digitaria ciliaris; 3 weeks at 25° C.
# Method: as §3
row,SMILES,"herbicidal efficacy, Digitaria ciliaris"
1,N#Cc1cnn(-c2nn3c(c2Cl)CCCC3)c1NC(=O)Cc1ccc(F)cc1 [Compound 15],10 (10: 100%)
2,O=C(Cc1ccccc1)Nc1c([N+](=O)[O-])cnn1-c1nn2c(c1Cl)CCCC2 [Compound 5],10 (10: 100%)

# Same assay, conditions: 10 g a.i./10 a; foliar spray at 1.0 to 2.0 leaf stage of Digitaria ciliaris; 3 weeks at 25° C.
row,SMILES,"herbicidal efficacy, Digitaria ciliaris"
1,N#Cc1cnn(-c2nn3c(c2Cl)CCCC3)c1NC(=O)Cc1ccc(F)cc1 [Compound 15],10 (10: 100%)
2,O=C(Cc1ccccc1)Nc1c([N+](=O)[O-])cnn1-c1nn2c(c1Cl)CCCC2 [Compound 5],10 (10: 100%)

# System: Digitaria ciliaris
# Assay: Weed foliar treatment test (Test 4, 4.0 to 5.0 leaf stage)
# Assay type: in vivo
# Conditions: 10 g a.i./10 a; foliar spray at 4.0 to 5.0 leaf stage of Digitaria ciliaris (plant height 10 cm to 15 cm); 20 days at 25° C.
# Method: (§4) Field soil was filled into a 1/4500 are pot followed by seeding with Digitaria ciliaris and Galinsoga parviflora, covering with soil and cultivating in a glass greenhouse at an average atmospheric temperature of 25° C. Wettable powders of Target Compound (I) shown in Table 1 prepared in compliance with the preparation examples were diluted with water to the prescribed amount of chemical and uniformly sprayed onto the weeds using 100 liters of sprayed water per 10 are when Digitaria ciliaris had grown to the 4.0 to 5.0 leaf stage (plant height: 10 cm to 15 cm). After treating for 20 days in a glass greenhouse at an average atmospheric temperature of 25° C., the herbicidal efficacy thereof was investigated. Evaluation of herbicidal efficacy was carried out in the same manner as the above-mentioned Test Example 1.
row,SMILES,"herbicidal efficacy, Digitaria ciliaris"
1,N#Cc1cnn(-c2nn3c(c2Cl)CCCC3)c1NC(=O)Cc1ccc(F)cc1 [Compound 15],10 (10: 100%)
2,O=C(Cc1ccccc1)Nc1c([N+](=O)[O-])cnn1-c1nn2c(c1Cl)CCCC2 [Compound 5],10 (10: 100%)

# System: Galinsoga parviflora
# Assay: as above
# Assay type: in vivo
# Conditions: 10 g a.i./10 a; foliar spray at 4.0 to 5.0 leaf stage of Digitaria ciliaris (plant height 10 cm to 15 cm); 20 days at 25° C.
# Method: as §4
row,SMILES,"herbicidal efficacy, Galinsoga parviflora"
1,N#Cc1cnn(-c2nn3c(c2Cl)CCCC3)c1NC(=O)Cc1ccc(F)cc1 [Compound 15],10 (10: 100%)
2,O=C(Cc1ccccc1)Nc1c([N+](=O)[O-])cnn1-c1nn2c(c1Cl)CCCC2 [Compound 5],10 (10: 100%)
